Earlier results as cited in patent US9339030B2, “Foamable pesticide compositions and methods of application” (BASF Corporation, priority 2009, dated 2016).

How the values were obtained:
termites = details: general statement, no experiment described
ants = details: general statement, no experiment described

N#Cc1nn(-c2c(Cl)cc(C(F)(F)F)cc2Cl)c(N)c1[S+]([O-])C(F)(F)F (racemic) [fipronil, (±)-5-amino-1-(2,6-dichloro-α,α,α-trifluoro-p-tolyl)-4-trifluoromethylsulfinylpyrazole-3-carbonitrile]
dose toxic to termites (termites): 2 nanograms per termite
dose toxic to ants (ants): about 1 nanogram per ant
